Measured values reported in US4468511A, “C-20- And C-23-Modified macrolide derivatives” (Eli Lilly and Company, priority 1983, dated 1984).
Values after ≈ are worked out from the molar mass of the structure shown. Read-outs that look alike come from different tables or passages of the source.

How the values were obtained:
[1] = tested on: Klebsiella pneumoniae X26; experiment: MIC, standard agar-dilution assay; assay type: cell-based
Outline: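 Broth microdilution MICs cover P. hemolytica, P. multocida and M. gallisepticum. The agar-dilution MIC covers K. pneumoniae only.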

[2] = tested on: Streptococcus pneumoniae Park I; experiment: MIC, standard agar-dilution assay; assay type: cell-based
Method: (§1) Certain of the derivatives are active against some gram-negative bacteria, such as Pasteurella species. The MIC's in Table II were determined by standard agar-dilution assays. The MIC's in Table III were obtained using a conventional broth-dilution microtiter test.

Escherichia coli EC14 = experiment: MIC, standard agar-dilution assay; assay type: cell-based
Method: as §1

[3] = tested on: Streptococcus Group D X66; experiment: MIC, standard agar-dilution assay; assay type: cell-based
Method: as §1

Escherichia coli TEM = experiment: MIC, standard agar-dilution assay; assay type: cell-based
Outline: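 Minimum inhibitory concentrations against Escherichia coli were measured with a standard agar-dilution method. The result for each derivative is the lowest concentration that inhibits bacterial growth, given in ug/mL.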

[4] = tested on: Streptococcus pyogenes 9960; experiment: MIC, standard agar-dilution assay; assay type: cell-based; details: 9960
Method: as §1

[5] = tested on: Klebsiella pneumoniae KAE; experiment: MIC, standard agar-dilution assay; assay type: cell-based
Outline: (§2)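 Method depends on organism. Klebsiella pneumoniae was assayed on agar. Pasteurella spp. and Mycoplasma gallisepticum were assayed in broth microtiter dilution.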

[6] = tested on: Staphylococcus aureus V41; experiment: MIC, standard agar-dilution assay; assay type: cell-based; details: Staphylococcus aureus, V41
Method: as §1

[7] = tested on: Staphylococcus aureus X1.1; experiment: MIC, standard agar-dilution assay; assay type: cell-based; details: Staphylococcus aureus, X1.1
Outline: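 Minimum inhibitory concentration against Staphylococcus aureus strain X1.1 was measured with a standard agar-dilution method. The result is reported as the MIC in ug/mL, i.e. the lowest compound concentration in agar that prevents visible growth of this organism.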

[8] = tested on: Streptococcus pyogenes C203; experiment: MIC, standard agar-dilution assay; assay type: cell-based; details: Streptococcus pyogenes, C203
Method: as §1

[9] = tested on: Pasteurella hemolytica 22C; experiment: MIC, conventional broth-dilution microtiter test; assay type: cell-based
Outline: as §2

Mycoplasma hyorhinis = experiment: MIC, conventional broth-dilution microtiter test; assay type: cell-based
Outline: (§3)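 MICs for the two Pasteurella strains and the Mycoplasma strain were read from a broth-dilution microtiter test. The Klebsiella strain was tested on agar instead.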

Staphylococcus aureus = experiment: MIC, conventional broth-dilution microtiter test; assay type: cell-based
Method: as §1

[10] = tested on: Pasteurella multocida 22A; experiment: MIC, conventional broth-dilution microtiter test; assay type: cell-based; details: Pasteurella multocida, 22A
Outline: as §2

[11] = tested on: Mycoplasma gallisepticum 34159; experiment: MIC, conventional broth-dilution microtiter test; assay type: cell-based; details: Mycoplasmoides gallisepticum
Outline: as §2

Mycoplasma gallisepticum = experiment: MIC, conventional broth-dilution microtiter test; assay type: cell-based; details: Mycoplasmoides gallisepticum
Outline: as §2

Mycoplasma synoviae = experiment: MIC, conventional broth-dilution microtiter test; assay type: cell-based; details: Mycoplasmopsis synoviae
Outline: as §3

[12] = tested on: Pasteurella multocida 17E; experiment: MIC, conventional broth-dilution microtiter test; assay type: cell-based; details: Pasteurella multocida, 17E
Outline: as §2

[13] = tested on: Pasteurella multocida 60A; experiment: MIC, conventional broth-dilution microtiter test; assay type: cell-based; details: Pasteurella multocida, 60A
Outline: as §2

[14] = tested on: Pasteurella hemolytica 41D; experiment: MIC, conventional broth-dilution microtiter test; assay type: cell-based
Outline: as §2

Streptococcus sp. 80 = experiment: MIC, conventional broth-dilution microtiter test; assay type: cell-based
Method: as §1

[15] = tested on: Mycoplasma gallisepticum 41313; experiment: MIC, conventional broth-dilution microtiter test; assay type: cell-based; details: Mycoplasmoides gallisepticum
Outline: as §2

[16] = tested on: Pasteurella multocida 40G; experiment: MIC, conventional broth-dilution microtiter test; assay type: cell-based; details: Pasteurella multocida, 40G
Outline: as §2

[17] = tested on: Pasteurella hemolytica 23C; experiment: MIC, conventional broth-dilution microtiter test; assay type: cell-based
Outline: as §2

[18] = tested on: Pasteurella multocida 68C; experiment: MIC, conventional broth-dilution microtiter test; assay type: cell-based; details: Pasteurella multocida, 68C
Outline: as §2

[19] = tested on: Haemophilus influenzae C.L.; experiment: MIC, standard agar-dilution assay; assay type: cell-based
Method: (§4) The MIC's in Table II were determined by standard agar-dilution assays. The MIC's in Table III were obtained using a conventional broth-dilution microtiter test.

[20] = tested on: Staphylococcus epidermidis EPI2; experiment: MIC, standard agar-dilution assay; assay type: cell-based; details: Staphylococcus epidermidis, EPI2
Method: as §4

[21] = tested on: Haemophilus influenzae 76; experiment: MIC, standard agar-dilution assay; assay type: cell-based
Method: as §4

[22] = tested on: Staphylococcus aureus X400; experiment: MIC, standard agar-dilution assay; assay type: cell-based; details: Staphylococcus aureus, X400
Method: as §4

[23] = tested on: Staphylococcus aureus S13E; experiment: microbe, parasite or virus in culture; assay type: cell-based
Method: as §4

[24] = tested on: Staphylococcus epidermidis EPI1; experiment: microbe, parasite or virus in culture; assay type: cell-based; details: Staphylococcus epidermidis, EPI1
Method: as §4

[25] = tested on: Streptococcus pyogenes C203; experiment: Protection of mice experimentally infected with S. pyogenes C203; assay type: in vivo
Method: Some of the derivatives of this invention have shown in vivo antimicrobial activity against experimentally-induced infections in laboratory animals. When two doses of test compound were administered to mice experimentally infected with S. pyogenes C203, the activity observed was measured as an ED50 value [effective dose in mg/kg to protect 50% of the test animals: see Warren Wick, et al., J. Bacteriol. 81, 233-235 (1961)].

Pasteurella multocida = experiment: Pasteurella infection in one-day old chicks; assay type: in vivo; details: subcutaneous, 30 mg/kg × 2, 1 and 4 hours post-challenge
Method: Certain of the formula 1 compounds of this invention have also shown in vivo activity against infections induced by gram-negative bacteria. Table V summarizes the results of tests in which illustrative compounds were evaluated against a Pasteurella infection in one-day old chicks. The compounds were administered parenterally after challenge of the chicks with Pasteurella multocida (0.1 ml of a 10^-4 dilution of a twenty-hour tryptose broth culture of an avian P. multocida given subcutaneously). In these tests, unless indicated otherwise, all non-medicated infected chicks died within 24 hours of Pasteurella challenge. In the tests summarized in Table V, the compounds were administered by subcutaneous injection at a dosage of 30 mg/kg, 1 and 4 hours post-challenge of the chicks with P. multocida.

[26] = C203, sc, read-out: ED50 Subcutaneous

SMILES	MIC ([1]; Klebsiella pneumoniae, X26) [µg/mL]	MIC ([2]; Streptococcus pneumoniae) [µg/mL]	MIC (Escherichia coli EC14; Escherichia coli, EC14) [µg/mL]	MIC [3] [µg/mL]	MIC (Escherichia coli TEM; Escherichia coli) [µg/mL]	MIC [4] [µg/mL]	MIC ([5]; Klebsiella pneumoniae) [µg/mL]	MIC [6] [µg/mL]	MIC [7] [µg/mL]	MIC [8] [µg/mL]	MIC [10] [µg/mL]	MIC (Mycoplasma synoviae) [µg/mL]	MIC [12] [µg/mL]	MIC [13] [µg/mL]	MIC [16] [µg/mL]	MIC [18] [µg/mL]	MIC [20] [µg/mL]	MIC [22] [µg/mL]	MIC [23] [µg/mL]	MIC [24] [µg/mL]	also measured
CCC1CC(C)C(=O)C=CC(C)=CC(COC(=O)Cc2ccccc2)C(CC)OC(=O)CC(O)C(C)C1OC1OC(C)C(O)C(N(C)C)C1O (centres unmarked) [Compound 41, 23-O-Phenylacetyl-20-deoxy-20-dihydro-OMT]	4 (≈ 5.7 µM)	0.25 (≈ 0.356 µM)	128 (≈ 182 µM)	1 (≈ 1.42 µM)	16 (≈ 22.8 µM)	1 (≈ 1.42 µM)	> 128	0.5 (≈ 0.712 µM)	0.5 (≈ 0.712 µM)	0.5 (≈ 0.712 µM)	25 (≈ 35.6 µM)	3.12 (≈ 4.45 µM)	12.5 (≈ 17.8 µM)	3.12 (≈ 4.45 µM)	12.5 (≈ 17.8 µM)	3.12 (≈ 4.45 µM)	0.5 (≈ 0.712 µM)	0.5 (≈ 0.712 µM)	0.5 (≈ 0.712 µM)	0.5 (≈ 0.712 µM)	MIC ([9]; Pasteurella, 22C): 12.5 µg/mL (≈ 17.8 µM); MIC (Mycoplasma hyorhinis; Mycoplasma): 50 µg/mL (≈ 71.2 µM); MIC (Staphylococcus aureus): 0.78 µg/mL (≈ 1.11 µM); MIC [11]; 34159: 50 µg/mL (≈ 71.2 µM); MIC (Mycoplasma gallisepticum): 3.12 µg/mL (≈ 4.45 µM); MIC ([14]; Pasteurella, 41D): 12.5 µg/mL (≈ 17.8 µM); MIC (Streptococcus sp. 80; Streptococcus, SP.80): 1.56 µg/mL (≈ 2.22 µM); MIC [15]; 41313: 50 µg/mL (≈ 71.2 µM); MIC ([17]; Pasteurella, 23C): 12.5 µg/mL (≈ 17.8 µM); MIC ([19]; Haemophilus influenzae): 8 µg/mL (≈ 11.4 µM); MIC ([21]; Haemophilus influenzae, 76): 8 µg/mL (≈ 11.4 µM); ED50 ([25]; C203, po, read-out: ED50 Oral): > 100 mg/kg; ED50 [25, 26]: > 25 mg/kg
CCC1OC(=O)CC(O)C(C)C(OC2OC(C)C(O)C(N(C)C)C2O)C(CCOc2ccccc2)CC(C)C(=O)C=CC(C)=CC1COc1ccccc1 (centres unmarked) [Compound 32, 20,23-Di-O-phenyl-20-dihydro-OMT]						2 (≈ 2.66 µM)		1 (≈ 1.33 µM)	1 (≈ 1.33 µM)	2 (≈ 2.66 µM)	3.12 (≈ 4.15 µM)	6.25 (≈ 8.31 µM)	3.12 (≈ 4.15 µM)	3.12 (≈ 4.15 µM)	3.12 (≈ 4.15 µM)	3.12 (≈ 4.15 µM)	1 (≈ 1.33 µM)	2 (≈ 2.66 µM)	1 (≈ 1.33 µM)	1 (≈ 1.33 µM)	MIC ([1]; agar-dilution, Klebsiella pneumoniae X26, read-out: MIC): > 128 µg/mL; MIC ([2]; agar-dilution, Streptococcus pneumoniae Park I, read-out: MIC): 0.25 µg/mL (≈ 0.332 µM); MIC (Escherichia coli EC14; agar-dilution, Escherichia coli EC14, read-out: MIC): > 128 µg/mL; MIC ([3]; agar-dilution, Streptococcus Group D X66, read-out: MIC): 0.5 µg/mL (≈ 0.665 µM); MIC (Escherichia coli TEM; agar-dilution, Escherichia coli TEM, read-out: MIC): > 128 µg/mL; MIC ([5]; agar-dilution, Klebsiella pneumoniae KAE, read-out: MIC): > 128 µg/mL; MIC ([9]; broth-dilution microtiter, Pasteurella hemolytica 22C, read-out: MIC): 12.5 µg/mL (≈ 16.6 µM); MIC (Mycoplasma hyorhinis; broth-dilution microtiter, Mycoplasma hyorhinis, read-out: MIC): 50 µg/mL (≈ 66.5 µM); MIC (Staphylococcus aureus; broth-dilution microtiter, read-out: MIC): 0.39 µg/mL (≈ 0.519 µM); MIC ([11]; broth-dilution microtiter, Mycoplasma gallisepticum 34159, Resistant strain, read-out: MIC): 6.25 µg/mL (≈ 8.31 µM); MIC (Mycoplasma gallisepticum; broth-dilution microtiter, Mycoplasma gallisepticum, read-out: MIC): 0.78 µg/mL (≈ 1.04 µM); MIC ([14]; broth-dilution microtiter, Pasteurella hemolytica 41D, read-out: MIC): 12.5 µg/mL (≈ 16.6 µM); MIC (Streptococcus sp. 80; broth-dilution microtiter, Streptococcus sp. 80, read-out: MIC): 0.048 µg/mL (≈ 0.0638 µM); MIC ([15]; broth-dilution microtiter, Mycoplasma gallisepticum 41313, Resistant strain, read-out: MIC): 25 µg/mL (≈ 33.2 µM); MIC ([17]; broth-dilution microtiter, Pasteurella hemolytica 23C, read-out: MIC): 12.5 µg/mL (≈ 16.6 µM); MIC ([19]; agar-dilution, Haemophilus influenzae C.L., Ampicillin-sensitive strain, read-out: MIC): > 128 µg/mL; MIC ([21]; agar-dilution, Haemophilus influenzae 76, Ampicillin-resistant strain, read-out: MIC): > 128 µg/mL; ED50 ([25]; C203, mice, oral, mg/kg × 2, doses given 1 and 4 hours postinfection, read-out: ED50 Oral): > 50 mg/kg; ED50 ([25]; C203, sc, mice, subcutaneous, mg/kg × 2, doses given 1 and 4 hours postinfection, read-out: ED50 Subcutaneous): > 10 mg/kg
CCC1OC(=O)CC(O)C(C)C(OC2OC(C)C(O)C(N(C)C)C2O)C(CCOC(=O)Cc2ccccc2)CC(C)C(=O)C=CC(C)=CC1COC(=O)Cc1ccccc1 (centres unmarked) [Compound 30, 20,23-Di-O-Phenylacetyl-20-dihydro-OMT]	8 (≈ 9.57 µM)	0.12 (≈ 0.144 µM)	> 128	0.5 (≈ 0.598 µM)	8 (≈ 9.57 µM)	0.5 (≈ 0.598 µM)	> 128	0.25 (≈ 0.299 µM)	0.25 (≈ 0.299 µM)	0.25 (≈ 0.299 µM)	6.25 (≈ 7.48 µM)	6.25 (≈ 7.48 µM)	12.5 (≈ 15 µM)	6.25 (≈ 7.48 µM)	6.25 (≈ 7.48 µM)	6.25 (≈ 7.48 µM)	0.5 (≈ 0.598 µM)	0.5 (≈ 0.598 µM)	0.25 (≈ 0.299 µM)	0.25 (≈ 0.299 µM)	Number of Deaths/Number Treated (Pasteurella multocida): 9/10; MIC ([9]; Pasteurella, 22C): 6.25 µg/mL (≈ 7.48 µM); MIC (Mycoplasma hyorhinis; Mycoplasma): 50 µg/mL (≈ 59.8 µM); MIC (Staphylococcus aureus): 1.56 µg/mL (≈ 1.87 µM); MIC [11]; 34159: 12.5 µg/mL (≈ 15 µM); MIC (Mycoplasma gallisepticum): 0.78 µg/mL (≈ 0.933 µM); MIC ([14]; Pasteurella, 41D): 6.25 µg/mL (≈ 7.48 µM); MIC (Streptococcus sp. 80; Streptococcus, SP.80): 0.39 µg/mL (≈ 0.466 µM); MIC [15]; 41313: 50 µg/mL (≈ 59.8 µM); MIC ([17]; Pasteurella, 23C): 6.25 µg/mL (≈ 7.48 µM); ED50 ([25]; C203, po, read-out: ED50 Oral): > 100 mg/kg; ED50 [25, 26]: > 30 mg/kg
